Where two headings read alike, the source gives them in different places.

Assay [1] concerns virus attachment. Kind of assay: Cell-based p24 attachment assay. The note with it: for IC50: Table 7, high dose test of 100 µM, read-out: Attachment I50. The procedure: The cell-based p24 attachment assay was performed as described in Rice (1995) Science 270:1194-1197. Viral inactivation assays were carried out as described in Rice (1995) Science 270:1194-1197, and Turpin (1997) supra, with minor modifications. Briefly, MAGI-CCR-5 cells were plated (4 x 10^4 cells per well) in flat bottomed 2-cm well plates for 24 h, after which the culture media was removed and compound-treated virus was added. The virus used was obtained by transient transfection of pNL4-3 into HeLa cells yielding the replication competent NL4-3 virus. Virus containing supernatants were treated for 2 h at 37°C after which residual compound was removed by centrifugation (18,000 x g, 1h, 4°C). Virus pellets were resuspended and placed on the MAGI-CCR-5 monolayers and cultured for 48 h. Monolayers were fixed and stained with X-gal solution and blue cells counted.

For assay [2], the system named is HIV-1 replication in TNFα-induced U1. Nature of the assay: Inhibition of p24 release from TNFα-induced U1 cells. The assay is classed as cell-based. As to the method:
(§1) Thiolester compounds were also tested for their ability to inhibit HIV-1 replication in TNFα-induced U1 and ACH-2 cells. U1 cells were induced with 5 ng/ml of TNFα in the presence of various concentrations of the thiolesters 44, 45 or 47. Forty-eight hours later the cultures were characterized for virus p24 antigen production and cell viability. […] Compound 44 killed 60% of the cells at 200 µM. […] Precursor processing evaluation performed as described by Turpin (1997) Antiviral Chem. Chemother. 8:60-69. Thus, thiolester PATEs initiate intracellular disulfide cross-linking of precursor polyproteins during late phase virus assembly and mediate a direct virucidal effect via an attack on the mature NCp7 retroviral zinc fingers in the cell-free virus.

Assay [3] deals with T1, Pr^55gag precursor (Human immunodeficiency virus type 1 group M subtype B, UniProt P03347).
T1 construct: Visualization of viral proteins from TNFα-induced U1 cells by electrophoretic separation and immunoblotting; endogenous in cells; host or cells: TNFα-induced U1 cells (integrated HIV-1 provirus)
Nature of the assay: Gag precursor cross-linking and processing in TNFα-induced U1 cells, Western blotting. The class given is cell-based, HIV-1. The note with it: for cross-linking of viral precursor polyproteins: TNFα-induced U1 cells, Western blotting; for Pr^55gag precursor processing: after reduction with β-ME, compound 45 at 100 µM. As to the method:
as §1
Virion cross linking was performed as described by Rice (1995) Science 270:1194-1197 and Turpin (1997) Antiviral Chem. Chemother. 8:60-67. Briefly, highly purified HIV-1 MN (11.8 µg total protein) was incubated for 2 hour with concentrations of compound. Virions were concentrated and residual compound was removed by centrifugation (18,000 x g, 1 h, 4°C). The viral pellet was solubilized in 0.5 M Tris-HCl,(pH 6.8), 50% glycerol, 8% SDS and 0.4% bromophenol blue and proteins resolved by Western blotting. Western blotting to detect the expression of HIV-1 proteins in U1 cells or virus pellets for virion cross-linking experiments was carried out as described by Turpin (1996) J. Virol. 70:6180-6189. Briefly, 50 µg of total cellular protein for U1 experiments or the total virion pellet (11.8 µg total viral protein) for NCp7 cross linking studies was resolved on 4 to 20% polyacrylamide gels in SDS with Tris-Glycine (Novex, San Diego CA). Samples for reduced gels were boiled for 5 min in the presence of 5% β-ME prior to loading. Resolved proteins were electroblotted on to polyvinylidene difluoride (PVDF) membranes, and HIV-1 specific proteins were detected using a mixture of goat anti- HIV-1 NCp7 and p24 or anti-NCp7 for virion proteins alone (a kind gift of L. E. Henderson, AIDS Vaccine Program NCI-FCRDC, Frederick, MD). Western blots were developed using standard chemiluminescence methodologies, as produced and described by Dupont-NEN, Wilmington, DE.
On the technique in general: A western blot detects proteins with antibodies after separation by electrophoresis.

Assay [4] has as its system fusion of the HL2/3 and MAGI-CCR-5 cells. Nature of the assay: Fusion assay, HL2/3 and MAGI-CCR-5 co-culture with beta-galactosidase reporter. Particulars: for IC50: Table 7, read-out: Fusion I50. The assay is classed as cell-based. The procedure: Determination of the effect of the test compounds on viral fusion were carried out as follows. Briefly, HL2/3 cells stably expressing HIV-1 Tat and cell surface gp120 and MAGI-CCR-5 cells stably expressing CD4 and CCR5 on their cell surface, containing a β-galactosidase reporter gene under the control of the HIV-1 LTR were pretreated with test compound for 1 h at 37°C. After incubation, the cells were mixed in a 4 to 1 ratio (2 x 10^5 MAGI-CCR-5 to 8 x 10^5 HL2/3 cells) and co-cultured for 18 h at 37°C; cultures were fixed and stained with X-gal solution for β-galactosidase activity. Blue cells represented the Tat transactivation of the HIV-1 LTR upon fusion of the HL2/3 and MAGI-CCR-5 cells via the CD4/CCR5 co-receptor gp 120 interaction.

The target of assay [5] is T2, Sp1 (Homo sapiens, UniProt P08047).
T2 construct: K562 cell nuclear extracts, and antibodies for Sp1 (Spl[PEP2]-G); host or cells: K562 cell nuclear extracts
T2 sequence (P08047 whole entry): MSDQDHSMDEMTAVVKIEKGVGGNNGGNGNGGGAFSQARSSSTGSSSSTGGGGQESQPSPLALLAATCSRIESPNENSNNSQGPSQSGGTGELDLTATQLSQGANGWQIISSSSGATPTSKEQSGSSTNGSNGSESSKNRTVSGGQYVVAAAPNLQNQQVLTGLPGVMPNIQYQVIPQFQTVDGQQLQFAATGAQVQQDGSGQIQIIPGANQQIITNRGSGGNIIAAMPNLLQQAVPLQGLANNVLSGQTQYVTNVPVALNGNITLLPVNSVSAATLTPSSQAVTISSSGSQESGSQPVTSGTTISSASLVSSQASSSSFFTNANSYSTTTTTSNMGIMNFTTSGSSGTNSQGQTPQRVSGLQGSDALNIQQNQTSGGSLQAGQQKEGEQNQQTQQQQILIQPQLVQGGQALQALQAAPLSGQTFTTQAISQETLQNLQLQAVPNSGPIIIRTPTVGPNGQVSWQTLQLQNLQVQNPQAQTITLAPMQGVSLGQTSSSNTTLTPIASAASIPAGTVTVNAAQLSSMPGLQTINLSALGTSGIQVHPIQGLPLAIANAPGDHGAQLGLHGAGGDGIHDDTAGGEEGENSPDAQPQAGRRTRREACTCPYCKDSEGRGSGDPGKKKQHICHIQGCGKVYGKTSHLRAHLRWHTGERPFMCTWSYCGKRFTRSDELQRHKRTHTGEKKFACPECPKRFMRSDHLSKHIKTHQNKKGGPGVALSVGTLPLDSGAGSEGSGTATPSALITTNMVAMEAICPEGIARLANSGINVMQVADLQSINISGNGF
Nature of the assay: Sp1 super gel shift EMSA with K562 cell nuclear extracts (specificity). The assay is classed as biochemical. Particulars: specificity for CCHC versus CCHH zinc finger. As to the method:
To determine if compound 44, 45 or 47 binding activity was specific for CCHC zinc fingers, a super gel shift EMSA after treatment of K562 cell nuclear extracts with the compounds was performed. This was followed by super shifting with Spl-specific antibody. Spl was chosen because it is a cellular transcription factor that contains three copies of a classical type CCHH zinc finger motif that are required for Sp1 binding to its DNA target. […] Super gel shifting to determine the specificity of zinc finger reactive compounds was carried out using an Sp1 consensus oligomer (Stratagene, La Jolla, CA), K562 cell nuclear extracts, and antibodies for Sp1 (Spl[PEP2]-G) (extracts and Spl Abs from Santa Cruz Biotechnology, Inc., Santa Cruz, CA). The binding reactions of oligonucleotides with K562 nuclear extract, as well as electrophoretic conditions were carried out as described in the Gelshift Buffer Kit, Stratagene, La Jolla, CA.
(A gel shift assay detects complexes by their altered migration in electrophoresis.)

The target in assay [6] is T3, recombinant HIV-1 protease (Human immunodeficiency virus type 1 group M subtype B, UniProt P03366).
T3 construct: Substrate cleavage of recombinant HIV-1 protease
Kind of assay: HPLC-based protease substrate cleavage assay. The assay is classed as biochemical. The note with it: for IC50: Table 7, high dose test of 100 µM, read-out: Protease I50. As to the method:
The 5-bromovaleroyl thioester, compound 44, and two 5-pyridiniovaleroyl thioesters, compounds 45 and 47, were analyzed in mechanistic and target-based assays. […] Assays for activity against HIV-1 reverse transcriptase rAdT (template/primer) and rCdG (template/primer) using recombinant HIV-1 reverse transcriptase (S. Hughes, ABL Basic Research NCI-FCRDC, Frederick MD) were performed as described by Rice (1997) supra. Substrate cleavage of recombinant HIV-1 protease in the presence of test compounds using an HPLC-based methodology with the artificial substrate Ala-Ser-Glu-Asn-Try- Pro-Ile-Val-amide (Multiple Peptide Systems, San Diego CA) was performed as described by Rice (1997) supra. The ability of recombinant HIV-1 integrase (S. Hughes, ABL Basic Research NCI-FCRDC, Frederick MD) to carry out 3' processing and strand transfer activities in the presence of test compounds was performed as described by Buckheit (1994) AIDS Res. Hum. Retroviruses 10:1497-1506, and Turpin (1998) Antimicrob. Agents Chemother. 42: 487-494.

[7] abbreviates: Human immunodeficiency virus 1, 5 ng/ml TNFα, 48 hours, read-out: inhibition of release of HIV-1 virions (p24) from U1 cells, EC50.
The mark [8] stands for this setting: Human immunodeficiency virus 1, Table 9, read-out: U1 Inhibition of p24 (EC50 µM).

Regarding `CC(=O)NS(=O)(=O)c1ccc(NC(=O)c2ccccc2SC(=O)CCCCBr)cc1` [Compound 44, N-[2-(5-bromovaleroylthio)benzoyl]sulfacetamide], in assay [1], the “inhibition of virus attachment” value was “did not inhibit” and the IC50 is above 100 µM. Besides, in assay [2] (setting [7]), the EC50 – broadly, the concentration that produces a half-maximal response – was found to be 94 µM. In addition, in assay [2] (setting [8]), the EC50 is 94 µM. Also, in assay [3], the “cross-linking of viral precursor polyproteins” value (“cross-linking” below) is “induced β-ME reversible alterations in the mobility of zinc finger containing HIV-1 precursor proteins”. In addition, in assay [4], the “inhibition of fusion to host cells” value was “did not inhibit” and the IC50 was above 100 µM. In assay [5], the “effect on super shifting of Sp1 bound to its DNA target” value (“effect on super shifting of Sp1 bound” for short) was “failed to alter the pattern of super shifting”. For the same molecule, in assay [6], the “inhibition of HIV-1 protease enzyme activity” value is given as “did not inhibit” and the IC50 is above 100 µM.

On to `CC(=O)NS(=O)(=O)c1ccc(NC(=O)c2ccccc2SC(=O)CCCC[n+]2ccccc2)cc1` [Compound 45, N-[2-(5-pyridinio-valeroylthio)benzoyl]sulfacetamide bromide], for which, in assay [1], the “inhibition of virus attachment” value is “did not inhibit” and the IC50 is above 100 µM. The EC50 in assay [2] (setting [7]) stood at 42.2 µM. The EC50 in assay [2] (setting [8]) worked out at 42.2 µM. For the same molecule, in assay [3], the “cross-linking” value is listed as “induced cross-linking of viral precursor polyproteins” and the “Pr^55gag precursor processing” value is listed as “inhibited Pr^55gag precursor processing”. For the same molecule, in assay [4], the “inhibition of fusion to host cells” value is recorded as “did not inhibit” and the IC50 amounted to 77 µM. Further, the “effect on super shifting of Sp1 bound” value in assay [5] is recorded as “failed to alter the pattern of super shifting”. In assay [6], the “inhibition of HIV-1 protease enzyme activity” value is given as “did not inhibit” and the IC50 was above 100 µM.

Regarding `O=C(CCCC[n+]1ccccc1)Sc1ccccc1C(=O)Nc1ccc(S(=O)(=O)c2ccc([N+](=O)[O-])cc2)cc1` [Compound 47], in assay [1], the “inhibition of virus attachment” value is given as “did not inhibit” and the IC50 is above 100 µM. Further, the EC50 in assay [2] (Human immunodeficiency virus 1, 48 h, read-out: inhibition of release of HIV-1 virions (p24) from U1 cells, EC50) worked out at 10.7 µM. In addition, the EC50 in assay [2] (Human immunodeficiency virus 1, read-out: U1 Inhibition of p24 (EC50 µM)) was 10.7 µM. In assay [3], the “cross-linking” value is “induced cross-linking of viral precursor polyproteins” and the “Pr^55gag precursor processing” value is on record as “inhibited Pr^55gag precursor processing”. Besides, in assay [4], the “inhibition of fusion to host cells” value is on record as “did not inhibit” and the IC50 was 99 µM. Further, the “effect on super shifting of Sp1 bound” value in assay [5] was “failed to alter the pattern of super shifting”. For the same molecule, the “inhibition of HIV-1 protease enzyme activity” value in assay [6] is “did not inhibit”.

Source of the values: patent EP1087941B9, “THIOLESTERS AND USES THEREOF” (THE UNITED STATES OF AMERICA, as represented by THE …, priority 1998, dated 1999).
